Laboratory results: patent publication US20180256654A1, “USE OF LACTOBACILLUS PARACASEI STRAIN GMNL-653 TO PREPARE COMPOSITION FOR RESISTING BONE LOSS” (GENMONT BIOTECH INC., priority 2017, published 2018)

Tested on: ovariectomized ICR female mice
Experiment: Bone tissue analysis by micro computed tomography: trabecular bone volume ratio in the osteoporosis mouse model
Format: in vivo
Settings: oral gavage for 28 days
Method: Preparation of dead bacteria: 1 μl Lactobacillus paracasei strain GMNL-653 and the Lactobacillus salivarius strain GMNL-678 frozen viral was inoculated to 1 ml of MRS broth, respectively, and aerobically incubated at 37° C. for 20 hours (first activation). The next day, adding 15 μl culture solution (first activation) into 1.5 ml of MRS broth, and then and aerobically incubated at 37° C. for 20 hours (secondary activation) Estimating the bacteria number by using OD 600 nm to adjust the bacteria concentration to 4.1×10^8 CFU/ml, and heat-killed bacteria was carried by autoclaving at 121° C. for 15 minutes. […]
Micro computed tomography (SkyScan 1076, Kontizh, Belgium, with resolution of 18 μm) was taken of the backbone of the right femur far from the end was taken, and the trabecular bone volume ratio (i.e. bone volume/tissue volume; BV/TV) was analyzed by a software. The analyzed position was selected to include the area of 100 pieces under the growth plate excluding cortical bone. […] The obtained data in the experiments were analyzed with two-way analysis of variance, and the T-test statistical analysis. […] After comparisons, the abovementioned groups were analyzed statistically and noted by different marks to represent the statistically significant differences (* represents p<0.05; ** represents p<0.01 See Table 3 and Table 4, showing the results of the experiment 1.

For `NCCCC(O)(P(=O)(O)O)P(=O)(O)O` [Alendronate], the “BV/TV compared with the disease group (OVX+H2O), in words” value was “higher than the disease group”.
